BigSolDB 2.1

CO/C=C(/C(=O)OC)c1ccccc1Oc1cc(Oc2ccccc2C#N)ncn1
solubility (mole fraction)
Settings | 288.15 K | 293.15 K | 298.15 K | 303.15 K | 308.15 K | 313.15 K | 318.15 K | 323.15 K | 328.15 K
in ethanol | 0.000747 | 0.000923 | 0.00118 | 0.00171 | 0.0022 | 0.00296 | 0.00422 | 0.0056 | 0.00786
in ethyl acetate | 0.0246 | 0.0283 | 0.0319 | 0.0415 | 0.0473 | 0.059 | 0.0756 | 0.0879 | 0.108
in isobutanol | 0.000441 | 0.000628 | 0.00084 | 0.00129 | 0.0017 | 0.00231 | 0.00324 | 0.00441 | 0.00571
in isopropanol | 0.000339 | 0.000476 | 0.000649 | 0.00102 | 0.00134 | 0.00183 | 0.0026 | 0.00358 | 0.00452
in methanol | 0.00135 | 0.00165 | 0.00205 | 0.0027 | 0.00368 | 0.00497 | 0.00683 | 0.0096 | 0.0144
in n-butanol | 0.000514 | 0.000733 | 0.000955 | 0.00149 | 0.00185 | 0.00246 | 0.0034 | 0.00476 | 0.00635
in n-propanol | 0.000654 | 0.000829 | 0.00108 | 0.00162 | 0.00207 | 0.00277 | 0.00387 | 0.00527 | 0.0072
